One may read the mortality as the percentage killed.

Results on 14 molecules are retold here after patent US20250228239A1, “MOLECULES HAVING PESTICIDAL UTILITY, AND INTERMEDIATES, COMPOSITIONS, AND PROCESSES, RELATED THERETO” (priority 2024, published 2025).

Type in all cases: in vivo
For series [1], the system named is Cabbage Looper (Trichoplusia ni, TRIPNI). The series can be described thus: Bioassays on Cabbage Looper (CL), 128-well diet tray assay. The settings on record: Trichoplusia ni; for mortality at 50 µg/cm2: 168 h, second instar larvae, 50 μg/cm^2 of test molecule on artificial diet, 25° C., five to seven days, average of eight wells, read-out: CL % Control (or Mortality) rating. Put shortly:
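One to five second-instar larvae per well on artificial diet surface-treated with 50 μg/cm^2 test molecule (applied in 90:10 acetone-water, dried). Held 5–7 days at 25° C, 14:10 light-dark; percent mortality recorded per well and averaged over eight wells.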

Series [2] has as its system Yellow Fever Mosquito (Aedes aegypti, AEDSAE). The settings on record: for YFM % Control (or Mortality) rating: about 1 day-old larvae, 4000 ppm master solution diluted with 90:10 water/acetone, 15 μL per well plus 220 μL larval mixture, 3 days; for YFM rating: Table ABC / ABC-DP rating. On the procedure: Certain molecules disclosed in this document were tested against YFM using procedures described in the following paragraph. In the reporting of the results, the “GPA & YFM Rating Table” was used (See Table Section).
Master plates containing 400 μg of a molecule dissolved in 100 μL of dimethyl sulfoxide (DMSO) (equivalent to a 4000 ppm solution) are used. A master plate of assembled molecules contains 15 μL per well. To this plate, 135 μL of a 90:10 water/acetone mixture is added to each well. A robot (Biomek® NXP Laboratory Automation Workstation) is programmed to dispense 15 μL aspirations from the master plate into an empty 96-well shallow plate (“daughter” plate). There are 6 reps (“daughter” plates) created per master. The created “daughter” plates are then immediately infested with YFM larvae.
The day before plates are to be treated, mosquito eggs are placed in Millipore water containing liver powder to begin hatching (4 g into 400 mL). After the “daughter” plates are created using the robot, they are infested with 220 μL of the liver powder/larval mosquito mixture (about 1 day-old larvae). After plates are infested with mosquito larvae, a non-evaporative lid is used to cover the plate to reduce drying. Plates are held at room temperature for 3 days prior to grading. After 3 days, each well is observed and scored based on mortality. The results are indicated in the table entitled “Table ABC: Biological Results” (See Table Section).

Series [3] deals with Beet Armyworm (Spodoptera exigua, LAPHEG). The series can be described thus: Bioassays on Beet Armyworm (BAW), 128-well diet tray assay. The settings on record: Spodoptera exigua; for mortality at 50 µg/cm2: 168 h, second instar larvae, 50 μg/cm^2 of test molecule on artificial diet, 25° C., five to seven days, average of eight wells, read-out: BAW % Control (or Mortality) rating. In a few lines:
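Second-instar larvae, one to five per well, were placed on artificial diet surface-treated with 50 μg/cm^2 compound in 90:10 acetone-water, eight wells per treatment. Trays were held 5–7 days at 25 °C, 14:10 light-dark. Percent mortality per well was averaged over eight wells.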

Where [4] appears, read: Cabbage Looper, Table ABC / ABC-DP rating, read-out: CL rating.
Setting [5] is: Beet Armyworm, Table ABC / ABC-DP rating, read-out: BAW rating.
Where [6] appears, read: Table ABC: Biological Results, species CL, read-out: CL.
Where [7] appears, read: Table ABC: Biological Results, species YFM.
Setting [8] is: Table ABC: Biological Results, species BAW, read-out: BAW.
The mark [9] stands for this setting: Cabbage Looper, rating class, read-out: CL.
Setting [10] is: Yellow Fever Mosquito, rating class.
Where [11] appears, read: Beet Armyworm, rating class, read-out: BAW.

SMILES strings stand for the structures. Read-outs that look alike come from different tables or passages of the source.

On to `CC(C)(C)OC(=O)N(C(=O)OC(C)(C)C)c1c(F)ccc(NC(=O)c2cc(NC(=O)[C@H]3[C@H](c4ccc(Cl)c(Cl)c4)C3(Cl)Cl)ccc2Cl)c1F` [DP7, tert-Butyl-N-((tert-butoxy)carbonyl)-N-(3-(2-chloro-5-((1R,3R)-2,2-dichloro-3-(3,4-dichlorophenyl)cyclopropane-1-carboxamido)benzamido)-2,6-difluorophenyl)carbamate], for which the figures for the mortality at 50 µg/cm2 in series [1] and in series [3] were 0 to 50% and 50 to 100%, respectively. Further, the pest or weed control at 50 µg/cm2 fell in the range of 0 to 50% in series [1] (setting [4]) and 50 to 100% in series [3] (setting [5]). The “YFM % Control (or Mortality) rating” value in series [2] is recorded as “D (No activity noticed in this bioassay)”.
Take `CC(C)(C)OC(=O)Nc1ccc(F)c(NC(=O)c2cc(NC(=O)[C@H]3[C@H](c4cc(Cl)cc(Cl)c4)C3(Cl)Cl)ccc2Cl)c1F` (relative stereo) [F1023, trans-tert-Butyl-(3-(2-chloro-5-(2,2-dichloro-3-(3,5-dichlorophenyl)cyclopropane-1-carboxamido)benzamido)-2,4-difluorophenyl)carbamate]: the pest or weed control at 50 µg/cm2 in series [1] (setting [6]) and in series [3] (setting [8]) was 50 to 100% throughout. For the same molecule, in series [2] (setting [7]), the YFM result is “A (80–100)”.
For `O=C(NN=Cc1ccccn1)c1cc(NC(=O)[C@H]2[C@H](c3cc(Cl)cc(Cl)c3)C2(Cl)Cl)ccc1Cl` (relative stereo) [F3002, trans-2,2-Dichloro-N-(4-chloro-3-(2-(pyridin-2-ylmethylene)hydrazine-1-carbonyl)phenyl)-3-(3,5-dichlorophenyl)cyclopropane-1-carboxamide], the mortality at 50 µg/cm2 in series [1] and in series [3] was 50 to 100% in each case. Also, the pest or weed control at 50 µg/cm2 in series [1] (setting [4]) and in series [3] (setting [5]) was 50 to 100% each time. In addition, the YFM rating result in series [2] (Yellow Fever Mosquito) was “A (80–100)”. In addition, in series [2], the “YFM % Control (or Mortality) rating” value was “A (80–100)”.
Regarding `C=Cc1cc(F)cc(F)c1NC(=O)c1cc(NC(=O)[C@H]2[C@H](c3cc(Cl)cc(Cl)c3)C2(Cl)Cl)ccc1Cl` (relative stereo) [F1316, trans-2-Chloro-5-(2,2-dichloro-3-(3,5-dichlorophenyl)cyclopropane-1-carboxamido)-N-(2,4-difluoro-6-vinylphenyl)benzamide], the pest or weed control at 50 µg/cm2 in series [1] (setting [6]) and in series [3] (setting [8]) was 50 to 100% throughout. Also, in series [2] (setting [7]), the YFM result is reported as “A (80–100)”.
Turning to `O=C(Nc1ccc(NC(=O)C(F)(F)F)c(C(F)(F)F)c1)c1cc(NC(=O)[C@H]2[C@H](c3ccc(F)c(Cl)c3)C2(Cl)Cl)ccc1Cl` (relative stereo) [F1393, trans-2-Chloro-5-(2,2-dichloro-3-(3-chloro-4-fluorophenyl)cyclopropane-1-carboxamido)-N-(4-(2,2,2-trifluoroacetamido)-3-(trifluoromethyl)phenyl)benzamide], the pest or weed control at 50 µg/cm2 in series [1] (setting [9]) and in series [3] (setting [11]) was 50 to 100% throughout. In series [2] (setting [10]), the YFM result was “A (80–100)”.
Turning to `C=C(F)c1cc(NC(=O)c2cc(NC(=O)[C@H]3[C@H](c4cc(Cl)cc(Cl)c4)C3(Cl)Cl)ccc2Cl)cc(F)c1F` (relative stereo) [F1323, trans-2-Chloro-5-(2,2-dichloro-3-(3,5-dichlorophenyl)cyclopropane-1-carboxamido)-N-(3,4-difluoro-5-(1-fluorovinyl)phenyl)benzamide], the pest or weed control at 50 µg/cm2 in series [1] (setting [6]) and in series [3] (setting [8]) was 50 to 100% in each case. Also, the YFM entry in series [2] (setting [7]) is given as “A (80–100)”.
`CCOC(C)(C)C(=O)Nc1c(F)ccc(NC(=O)c2cc(NC(=O)[C@H]3[C@H](c4ccc(Cl)c(Cl)c4)C3(Cl)Cl)ccc2Cl)c1F` [F1605, 2-Chloro-5-((1R,3R)-2,2-dichloro-3-(3,4-dichlorophenyl)cyclopropane-1-carboxamido)-N-(3-(2-ethoxy-2-methylpropanamido)-2,4-difluorophenyl)benzamide]: the pest or weed control at 50 µg/cm2 in series [1] (setting [9]) and in series [3] (setting [11]) was 50 to 100% throughout. In series [2] (setting [10]), the YFM result is “A (80–100)”.
As to `Cc1cc(NC(=O)[C@H]2[C@H](c3ccc(F)c(Cl)c3)C2(Cl)Cl)cc(C(=O)NCC(F)(F)C(F)(F)F)c1F` (relative stereo) [F2031, trans-5-(2,2-Dichloro-3-(3-chloro-4-fluorophenyl)cyclopropane-1-carboxamido)-2-fluoro-3-methyl-N-(2,2,3,3,3-pentafluoropropyl)benzamide], the pest or weed control at 50 µg/cm2 in series [1] (setting [4]) and in series [3] (setting [5]) was 50 to 100% each time. Moreover, in series [2] (Yellow Fever Mosquito), the YFM rating result is “A (80–100)”.
Take `O=C(Nc1ccc(F)c(NC(=O)C(F)(F)F)c1F)c1cc(NC(=O)[C@H]2[C@H](c3cc(C(F)(F)F)cc(C(F)(F)F)c3)C2(Cl)Cl)ccc1Cl` (relative stereo) [F1801, trans-5-(3-(3,5-bis(Trifluoromethyl)phenyl)-2,2-dichlorocyclopropane-1-carboxamido)-2-chloro-N-(2,4-difluoro-3-(2,2,2-trifluoroacetamido)phenyl)benzamide]: the pest or weed control at 50 µg/cm2 in series [1] (setting [4]) and in series [3] (setting [5]) was 50 to 100% each time. In series [2] (Yellow Fever Mosquito), the YFM rating entry is reported as “A (80–100)”.
For `O=C(NNc1ccc([N+](=O)[O-])cc1)c1cc(NC(=O)[C@H]2[C@H](c3cc(Cl)cc(Cl)c3)C2(Cl)Cl)ccc1Cl` (relative stereo) [F2555, trans-2,2-Dichloro-N-(4-chloro-3-(2-(4-nitrophenyl)hydrazine-1-carbonyl)phenyl)-3-(3,5-dichlorophenyl)cyclopropane-1-carboxamide], the pest or weed control at 50 µg/cm2 in series [1] (setting [4]) and in series [3] (setting [5]) was 50 to 100% in each case. In addition, the YFM rating entry in series [2] (Yellow Fever Mosquito) was “A (80–100)”.
For `C=C(F)C(=O)Nc1c(F)ccc(NC(=O)c2cc(NC(=O)[C@H]3[C@H](c4ccc(F)c(C(F)(F)F)c4)C3(Cl)Cl)ccc2Cl)c1F` [F1870, 2-Chloro-5-((1R,3R)-2,2-dichloro-3-(4-fluoro-3-(trifluoromethyl)phenyl)cyclopropane-1-carboxamido)-N-(2,4-difluoro-3-(2-fluoroacrylamido)phenyl)benzamide], the pest or weed control at 50 µg/cm2 in series [1] (setting [4]) and in series [3] (setting [5]) was 50 to 100% in each case. Besides, the YFM rating result in series [2] (Yellow Fever Mosquito) was “A (80–100)”.
Turning to `CO[C@H](C)C(=O)Nc1c(F)ccc(NC(=O)c2cc(NC(=O)[C@H]3[C@H](c4ccc(F)c(C(F)(F)F)c4)C3(Cl)Cl)ccc2Cl)c1F` [F1689, 2-Chloro-5-((1R,3R)-2,2-dichloro-3-(4-fluoro-3-(trifluoromethyl)phenyl)cyclopropane-1-carboxamido)-N-(2,4-difluoro-3-((R)-2-methoxypropanamido)phenyl)benzamide], the pest or weed control at 50 µg/cm2 in series [1] (setting [9]) and in series [3] (setting [11]) was 50 to 100% throughout. The YFM result in series [2] (setting [10]) is “B (More than 0 – Less than 80)”.
For the molecule `CN(C(=O)c1cc(NC(=O)[C@H]2[C@H](c3ccc(Cl)c(Cl)c3)C2(Cl)Cl)ccc1Cl)c1ccc(F)c(NC(=O)C(F)(F)F)c1F` [F1792, 2-Chloro-5-((1R,3R)-2,2-dichloro-3-(3,4-dichlorophenyl)cyclopropane-1-carboxamido)-N-(2,4-difluoro-3-(2,2,2-trifluoroacetamido)phenyl)-N-methylbenzamide], the pest or weed control at 50 µg/cm2 in series [1] (setting [4]) and in series [3] (setting [5]) was 50 to 100% each time. Moreover, the YFM rating entry in series [2] (Yellow Fever Mosquito) was “A (80–100)”.
Take `O=C(Nc1ccc(F)c(NC(=O)C(F)(F)C(F)F)c1F)c1cc(NC(=O)[C@H]2[C@H](c3cc(F)cc(C(F)(F)F)c3)C2(Cl)Cl)ccc1Cl` [F1707, 2-Chloro-5-((1R,3R)-2,2-dichloro-3-(3-fluoro-5-(trifluoromethyl)phenyl)cyclopropane-1-carboxamido)-N-(2,4-difluoro-3-(2,2,3,3-tetrafluoropropanamido)phenyl)benzamide]: the pest or weed control at 50 µg/cm2 in series [1] (setting [9]) and in series [3] (setting [11]) was 50 to 100% throughout. Moreover, in series [2] (setting [10]), the YFM entry is on record as “A (80–100)”.
